Assay results as given in ChEMBL document CHEMBL3885861, “Open TG-GATES”.

Species: Rattus norvegicus
Assay: Open TG-GATES - Regimen: Single
Type: toxicity, organism-based, Sprague-Dawley
Set-up: regimen Single, gender Male, age 6 weeks
Conditions: in vivo, po, route gavage; for WBC / APTT / Bas / Eos / Fbg / Hb / Ht / Lym / MCH / MCHC / MCV / Mono / Neu / PT / Plat / RBC / Ret: tissue Blood; for KIDNEY_L / KIDNEY_R / KIDNEY_TOTAL: tissue Kidney; for LIVER: tissue Liver; for ALP / ALT / AST / BUN / CRE / Ca / Cl / DBIL / GLC / IP / K / LDH / Na / PL / RALB / TBIL / TC / TP / gamma-GTP: tissue Plasma
[1] = 5 mg/kg, 9 h, dose level Middle
[2] = 5 mg/kg, 24 h, dose level Middle

Structure (SMILES): O=P1(N(CCCl)CCCl)NCCCO1 (stereo unspecified) [CYCLOPHOSPHAMIDE ANHYDROUS]
- WBC [1]: 57.2 x10_2/uL
- KIDNEY_L [1]: 0.9 g
- KIDNEY_R [1]: 0.9 g
- KIDNEY_TOTAL [1]: 1.8 g
- LIVER [1]: 7.9 g
- ALP [1]: 1360.2 IU/L
- ALT [1]: 35.2 IU/L
- AST [1]: 65.8 IU/L
- BUN [1]: 9 mg/dL
- CRE [1]: 0.1 mg/dL
- Ca [1]: 10.5 mg/dL
- Cl [1]: 106.6 meq/L
- DBIL [1]: 0.002 mg/dL
- GLC [1]: 179.4 mg/dL
- IP [1]: 9.7 mg/dL
- K [1]: 4 meq/L
- LDH [1]: 146.8 IU/L
- Na [1]: 143.6 meq/L
- PL [1]: 129.8 mg/dL
- RALB [1]: 3 g/dL
- TBIL [1]: 0.042 mg/dL
- TC [1]: 76.8 mg/dL
- TP [1]: 5.5 g/dL
- gamma-GTP [1]: 1 IU/L
- TERMINAL_BW [2]: 203.3 g
- APTT [2]: 22.1 s
- Bas [2]: 0%
- Eos [2]: 1%
- Fbg [2]: 307.6 mg/dL
- Hb [2]: 12.8 g/dL
- Ht [2]: 38.5%
- Lym [2]: 88.4%
- MCH [2]: 21.4 pg
- MCHC [2]: 33.3%
- MCV [2]: 64.1 fL
- Mono [2]: 1.6%
- Neu [2]: 8%
- PT [2]: 16.2 s
- Plat [2]: 134.5 x10_4/uL
- RBC [2]: 600.4 x10_4/ul
- Ret [2]: 7.3%
- WBC [2]: 58.1 x10_2/uL
- KIDNEY_L [2]: 0.9 g
- KIDNEY_R [2]: 0.9 g
- KIDNEY_TOTAL [2]: 1.9 g
- LIVER [2]: 9.4 g
- ALP [2]: 1835.8 IU/L
- ALT [2]: 48.6 IU/L
- AST [2]: 73.2 IU/L
- BUN [2]: 15.4 mg/dL
- CRE [2]: 0.2 mg/dL
- Ca [2]: 10.7 mg/dL
- Cl [2]: 105.2 meq/L
- DBIL [2]: 0.002 mg/dL
- GLC [2]: 180.2 mg/dL
- IP [2]: 8 mg/dL
- K [2]: 4.2 meq/L
- LDH [2]: 156.8 IU/L
- Na [2]: 142.8 meq/L
- PL [2]: 148.4 mg/dL
- RALB [2]: 3 g/dL
- TBIL [2]: 0.014 mg/dL
- TC [2]: 76.2 mg/dL
- TP [2]: 5.5 g/dL
- gamma-GTP [2]: 1 IU/L
- TERMINAL_BW (15 mg/kg, 3 h, dose level High): 195.2 g
- TERMINAL_BW (15 mg/kg, 3 h, dose level Low): 191.1 g
- APTT (15 mg/kg, 3 h, dose level High): 21.4 s
- Bas (15 mg/kg, 3 h, dose level High): 0%
- Eos (15 mg/kg, 3 h, dose level High): 0.8%
- Fbg (15 mg/kg, 3 h, dose level High): 291.2 mg/dL
- Hb (15 mg/kg, 3 h, dose level High): 13 g/dL
- Ht (15 mg/kg, 3 h, dose level High): 38.9%
- Lym (15 mg/kg, 3 h, dose level High): 76.2%
- MCH (15 mg/kg, 3 h, dose level High): 21.2 pg
- MCHC (15 mg/kg, 3 h, dose level High): 33.4%
- MCV (15 mg/kg, 3 h, dose level High): 63.4 fL
- Mono (15 mg/kg, 3 h, dose level High): 1.8%
- Neu (15 mg/kg, 3 h, dose level High): 20.2%
- PT (15 mg/kg, 3 h, dose level High): 15.6 s
- Plat (15 mg/kg, 3 h, dose level High): 120 x10_4/uL
- RBC (15 mg/kg, 3 h, dose level High): 613.8 x10_4/ul
- Ret (15 mg/kg, 3 h, dose level High): 8.2%
- WBC (15 mg/kg, 3 h, dose level High): 75.9 x10_2/uL
- APTT (15 mg/kg, 3 h, dose level Low): 16.4 s
- Fbg (15 mg/kg, 3 h, dose level Low): 273.4 mg/dL
- Hb (15 mg/kg, 3 h, dose level Low): 12.8 g/dL
- Ht (15 mg/kg, 3 h, dose level Low): 38.1%
- Lym (15 mg/kg, 3 h, dose level Low): 81.6%
- MCH (15 mg/kg, 3 h, dose level Low): 21 pg
- MCHC (15 mg/kg, 3 h, dose level Low): 33.5%
- MCV (15 mg/kg, 3 h, dose level Low): 62.8 fL
- Mono (15 mg/kg, 3 h, dose level Low): 2.8%
- Neu (15 mg/kg, 3 h, dose level Low): 14.2%
- PT (15 mg/kg, 3 h, dose level Low): 13.8 s
- Plat (15 mg/kg, 3 h, dose level Low): 112.1 x10_4/uL
- RBC (15 mg/kg, 3 h, dose level Low): 608.2 x10_4/ul
- Ret (15 mg/kg, 3 h, dose level Low): 8.6%
- WBC (15 mg/kg, 3 h, dose level Low): 94.2 x10_2/uL
- KIDNEY_L (15 mg/kg, 3 h, dose level High): 0.9 g
- KIDNEY_R (15 mg/kg, 3 h, dose level High): 0.9 g
- KIDNEY_TOTAL (15 mg/kg, 3 h, dose level High): 1.7 g
- KIDNEY_L (15 mg/kg, 3 h, dose level Low): 0.8 g
- KIDNEY_R (15 mg/kg, 3 h, dose level Low): 0.8 g
- KIDNEY_TOTAL (15 mg/kg, 3 h, dose level Low): 1.6 g
- LIVER (15 mg/kg, 3 h, dose level High): 9 g
- LIVER (15 mg/kg, 3 h, dose level Low): 8.5 g
- ALP (15 mg/kg, 3 h, dose level High): 1506.2 IU/L
- ALT (15 mg/kg, 3 h, dose level High): 38.8 IU/L
- AST (15 mg/kg, 3 h, dose level High): 70.6 IU/L
- BUN (15 mg/kg, 3 h, dose level High): 11 mg/dL
- CRE (15 mg/kg, 3 h, dose level High): 0.1 mg/dL
- Ca (15 mg/kg, 3 h, dose level High): 10.7 mg/dL
- Cl (15 mg/kg, 3 h, dose level High): 105.6 meq/L
- DBIL (15 mg/kg, 3 h, dose level High): 0 mg/dL
- GLC (15 mg/kg, 3 h, dose level High): 179.4 mg/dL
- IP (15 mg/kg, 3 h, dose level High): 9.1 mg/dL
- K (15 mg/kg, 3 h, dose level High): 4.1 meq/L
- LDH (15 mg/kg, 3 h, dose level High): 197.8 IU/L
- Na (15 mg/kg, 3 h, dose level High): 142.6 meq/L
- PL (15 mg/kg, 3 h, dose level High): 136 mg/dL
- RALB (15 mg/kg, 3 h, dose level High): 2.9 g/dL
- TBIL (15 mg/kg, 3 h, dose level High): 0.032 mg/dL
- TC (15 mg/kg, 3 h, dose level High): 71.8 mg/dL
- TP (15 mg/kg, 3 h, dose level High): 5.3 g/dL
- gamma-GTP (15 mg/kg, 3 h, dose level High): 1 IU/L
- ALP (15 mg/kg, 3 h, dose level Low): 1407.8 IU/L
- ALT (15 mg/kg, 3 h, dose level Low): 39 IU/L
- AST (15 mg/kg, 3 h, dose level Low): 74.2 IU/L
- BUN (15 mg/kg, 3 h, dose level Low): 10.2 mg/dL
- CRE (15 mg/kg, 3 h, dose level Low): 0.2 mg/dL
- Ca (15 mg/kg, 3 h, dose level Low): 10.9 mg/dL
- DBIL (15 mg/kg, 3 h, dose level Low): 0.014 mg/dL
- GLC (15 mg/kg, 3 h, dose level Low): 173.8 mg/dL
- IP (15 mg/kg, 3 h, dose level Low): 8.1 mg/dL
- K (15 mg/kg, 3 h, dose level Low): 4.4 meq/L
- LDH (15 mg/kg, 3 h, dose level Low): 64 IU/L
- Na (15 mg/kg, 3 h, dose level Low): 141.2 meq/L
- PL (15 mg/kg, 3 h, dose level Low): 136.4 mg/dL
- RALB (15 mg/kg, 3 h, dose level Low): 2.4 g/dL
- TBIL (15 mg/kg, 3 h, dose level Low): 0.056 mg/dL
